Assay [1] concerns the target T1, recombinant HRV 3C protease (Human rhinovirus 14, UniProt P03303).
T1 construct: Reactions were performed at 4 μM PEP1 and 50 nM recombinant HRV 3C protease
As to the kind of experiment: HRV 3C protease activity with inhibitors (Buffer+3C, PEP1). Type of assay: biochemical. The following applies: 4 μM PEP1; 50 nM recombinant HRV 3C protease. The procedure:
(§1) All inhibitors were dissolved at 100×, aliquoted, stored and used according to the manufacturers' instructions. No freeze thaw cycles were imposed on the inhibitors. Prior to starting the assay by addition of substrate, 10 μl of the cocktail or individual inhibitor was incubated for 5 min with 90 μl of the sample/buffer+ HRV protease.
(§2) To test the effect of the inhibitors on protease activity (Buffer+3C) and on background noise present in a nasal wash specimen pool, reaction rates were compared with or without the inhibitors in question (Table 12). Reactions were performed at 4 μM PEP1 and 50 nM recombinant HRV 3C protease for 5 min under starting buffer environment. A nasal wash specimen pool of four HRV negative specimens by RT-PCR was used due to insufficient volume from an individual specimen and to reproduce equal conditions throughout the experiments.
(§3) Results with and without inhibitory cocktail and with cocktail+recombinant HRV 3C protease are shown for both the specimen pool (FIG. 21A) and human WBC at ˜1×10^6 cell/ml (FIG. 21B). […] Spiking of recombinant HRV 3C protease to reactions with the inhibitory cocktail induced specific HRV protease activities at normal rates. Reactions were performed with 4 μM PEP1 and 50 nM recombinant HRV 3C protease where indicated (by +3C). The data are representative of two independent repeats.

Assay [2] relates to non specific proteolytic activity of the nasal wash specimen. As to the kind of experiment: Background noise in nasal wash specimen pool (HRV assay, PEP1). Type of assay: biochemical. The following applies: 4 μM PEP1; 5 min. How it is done:
as §1, §2, §3

In assay [3] the target is T2, Recombinant protease from enterovirus strain Echo (Echovirus 30, UniProt Q9WN78).
T2 construct: Phosphoramidon was tested using the Echovirus 3C recombinant
As to the kind of experiment: Enterovirus assay optimization with recombinant Echo protease (plates, tubes, buffer, Na2SO4, substrate concentration, diluent). The settings on record: for enzymatic activity: 0.25 uM substrate. The assay is classed as biochemical. The procedure:
• Inhibitor Cocktail: Inhibitors cocktail I10 • Enzyme dilution buffer: −25 mM HEPES pH 7.5, 150 mM NaCl, 1 mM EDTA, 10% Glycerol, 0.5 mg/ml BSA, 1M Sucrose, 0.1% Sodium azid. • 2× reaction buffer, Buffer B: 50 mM HEPES, 10 mM EDTA, 10 mM EGTA, 1.2M Na2SO4, sodium azide 0.1%, pH 8.5 • Artificial CSF: NaCl 125 mM, KCl 2.5 mM, MgCl 1 mM, NaH2PO4 1.25 mM, CaCl2 2 mM, Glucose 2.5 mM, NaHCO3 25 mM, 0.1% Sodium azide, HEPES 25 mM, pH 7.45. • Enzyme: Recombinant protease from enterovirus strain “Echo” [dilution 1:18 • Substrate: Camb-2.3, 1 mM, Camb-2.4, 2 mM. (Different batches for the same Camb2 sequence) • HEPES Buffer: HEPES 25 mM • NB tubes: Sigma Cat #Z666505 • Amber tubes: USA scientific Inc. Cat. 1620-2707 • 96 well Plate: Dark bottom NB plate—Greiner Cat. 655900
• 1. Add artiCSF±HEPES buffer to plate • 2. Prepare 400 ul HEPES buffer±RB+substrate (camb2.3 and 2.4) in both amber and NB tubes. • 3. Add enzyme to wells • 4. Add HEPES buffer±RB+substrate to wells with multichannel pipette.
The reaction buffer is a part of the enterovirus test kit of the invention. The camb-2 substrate is dissolved in the reaction buffer. The reaction buffer contains different salts to allow the tested enzyme to work at the optimal conditions. The current reaction buffer composition is: HEPES pH 7.5, 300 mM NaCl, 10 mM EDTA, 10 mM EGTA, 10% Glycerol, 1.8M Na2SO4, 0.1% Sodium azide. The amount of salt in the reaction buffer is high and allows optimal enzymatic activity. However, under these conditions, substrate solubility is affected. Thus, the reaction buffer was improved to increase substrate solubility without reducing enzymatic activity of the tested 3C protease.
300 mM NaCl and 10% glycerol was removed from the reaction buffer and several reduced concentrations of Na2SO4 (starting at 0.9M) were tested in order to determine the minimal salt requirements of the assay (Tables 31-34). Experiments were repeated at least three times by two different scientists.
CSF sample was incubated with 50 nM Echo protease and 2× reaction buffer with 0.6M Na2SO4. Also included were 3 blanks and 9 positive control repetitions.
The effect of reduction in substrate (camb2) concentration and increase in measurement time was tested. The experiment was performed at a final substrate (camb2.5) concentrations of 1, 0.5, 0.25 and 0.125 μM and data analysis was made at different time intervals: 1.5-5, 5-12 and 5-22 min (FIGS. 27A-C).
Sodium sulfate generally has an ambivalent effect: it increase 3C protease activity and reduces substrate solubility. Once it was decided that the substrate concentration would be reduced to 0.25 uM and results analyzed at between 5-10 min, the Na2SO4 concentration was optimized. […] 0.6-0.4M Na2SO4 was tested under the new assay conditions.
• Data analysis was performed between 5-10 min. • The assay activity was measured in triplicates by three scientists. The results in Table 51 are the average of the three triplicates.
To examine the effect of substrate dilution in DMSO vs. DDW under the new assay conditions, substrate stock (1 mM in DMSO) was diluted 1:8 in DMSO or in DDW to yield the working stock. The working stocks were further diluted 1:250 in 2× RB for a concentration of 0.5 uM (0.25 uM final in the well).
The assay activity was measured in triplicates by three scientists. The results in Table 52 are the average of the three triplicates.

Assay [4] concerns the target PSA (Homo sapiens, UniProt P07288). The following applies: in the presence of 1.3M Na2SO4; cited from earlier work.
Assay [5] deals with T3, a-Chymotrypsin Type IV (Bos taurus, UniProt P00766, DEL14-15/DEL147-148).
T3 construct: purchased
As to the kind of experiment: Competition inhibition of chymotrypsin by two substrates. The assay is classed as biochemical. The settings on record: Sub.-1 50 nM, Enzyme 100 pg/ml. How it is done:
• Dilution and reaction Buffer: HEPES 100 mM pH=7.5. • Substrate 1 (Sub.-1) Camb-2.4 (a batch of Camb2 substrate): FRET substrate based on Alexa 532 fluorophore. • Substrate 2 (Sub.-2): Commercially available colorimetric base (420NM) a-Chymotrypsin substrate. Dissolve in 1:1 HEPES/DMSO to 20 mm. additional 1:10 dilution was done in HEPES buffer. • Enzyme—a-Chymotrypsin: Commercially available a-Chymotrypsin Type IV was diluted in HEPES buffer to a stock of 20 ug/ml. Fluorimeter: DMV, Polar-Star Galaxy. Parameters: • Ex. […]. • Temprature RT. • Total reading Time 10 min. Gain 90
• Solution-1: HEPES buffer. • Solution-2: Substrate-1 stock was diluted 1:10 in 1000 ul HEPES to give a 2× solution of 100 nM. • Solution-3, a-d: Substrate-2 stock was serially diluted 1:10 with HEPES and 10 ul of each dilution was added into 40 ul of HEPES. a-400 uM, b-40 uM, c-4 uM, d-400 nM (10× solutions) • Solution-4: Enzyme stock was diluted 1:20 into 300 ul of HEPES to give a 10× solution.
Using a multi-Channel pipette, the above Solutions were added into a non binding blacked bottom 96 wells plat, using columns 1-6 of rows A-C. 30 ul Solution-1 and 50 ul Solution-2 were added to each well. Into rows A-C, 10 ul of Solution-1 was added to columns 1 and 2, 10 ul Solution-3a was added to column 3, 10 ul Solution-3b was added to column 4, 10 ul Solution-3c was added to column 5 and 10 ul Solution-3d was added to column 6. Into rows A-C. 10 ul of Solution-1 was added to columns 1, 10 ul of Solution-4 was added to columns 2-6. Fluorimertic reading was then started.

“And” between values parts separate entries of the source, which are not always exact repeats. Identical values can stand only once. Square brackets hold non-standard residues; d marks the D form. Peptide text beside a SMILES is read from it. * marks the point of attachment. Sta = CC(C)C[C@H](N)[C@@H](O)CC(=O)O; pNA = O=[N+]([O-])c1ccc(N*)cc1; Isovaleryl = CC(C)CC(=O)*; MeOSuc = COC(=O)CCC(=O)*

T1 sequence (P03303 1538-1719): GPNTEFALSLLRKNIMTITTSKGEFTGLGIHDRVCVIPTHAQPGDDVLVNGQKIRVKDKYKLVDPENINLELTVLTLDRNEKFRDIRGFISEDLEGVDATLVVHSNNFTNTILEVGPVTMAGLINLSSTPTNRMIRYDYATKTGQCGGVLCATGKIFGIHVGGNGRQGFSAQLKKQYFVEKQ
T2 sequence (Q9WN78 1550-1732): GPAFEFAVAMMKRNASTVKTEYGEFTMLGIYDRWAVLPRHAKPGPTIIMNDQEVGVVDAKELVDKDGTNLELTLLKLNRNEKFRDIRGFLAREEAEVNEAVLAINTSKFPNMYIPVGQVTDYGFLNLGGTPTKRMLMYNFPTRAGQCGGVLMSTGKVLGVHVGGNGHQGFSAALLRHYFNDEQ
Sequence of PSA (P07288 25-261): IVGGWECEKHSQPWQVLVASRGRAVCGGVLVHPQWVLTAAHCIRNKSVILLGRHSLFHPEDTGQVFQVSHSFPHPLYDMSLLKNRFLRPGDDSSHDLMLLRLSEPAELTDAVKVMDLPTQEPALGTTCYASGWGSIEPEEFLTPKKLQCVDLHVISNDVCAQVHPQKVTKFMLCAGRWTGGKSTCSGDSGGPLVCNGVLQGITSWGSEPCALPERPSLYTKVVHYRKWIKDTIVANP

As to `CC(C)C[C@H](NC(=O)[C@@H](O)[C@H](N)Cc1ccccc1)C(=O)O` [Bestatin], in assay [1], the “inhibition of HRV 3C protease activity” value is “did not inhibit”. Besides, in assay [2], the “effect on the non specific proteolytic activity of the nasal wash specimen” value is listed as “no effect”.
As for `CC(C)C[C@H](NC(=O)[C@H]1O[C@@H]1C(=O)O)C(=O)NCCCCN=C(N)N` [E-64], the “inhibition of HRV 3C protease activity” value in assay [1] is “no inhibition”.
Still for that read-out and setting: the value for `CC(C)[C@@H]1C(=O)N(S(C)(=O)=O)[C@@H]2CCN(C(=O)/C=C/CN3CCCCC3)[C@H]21.Cl` [GW311616A] was “did not inhibit”.
As to `O=S(=O)([O-])[O-].[Na+].[Na+]` [Na2SO4], in assay [3] (0.4M Na2SO4, average of all experiments, analysis 5-10 min), the “Positive control reaction rate, 0.4M Na2SO4, Averages ± SE” value was determined as 444 ± 75 RFU/min. Moreover, the enzymatic activity worked out at 444 in assay [3] (0.4M sodium sulfate, analysis 5-10 min); 700 in assay [3] (0.5M sodium sulfate, analysis 5-10 min); 825 in assay [3] (0.6M sodium sulfate, analysis 5-10 min). In assay [3] (0.5M Na2SO4, average of all experiments, analysis 5-10 min), the “Positive control reaction rate, 0.5M Na2SO4, Averages ± SE” value was 703 ± 56 RFU/min. Besides, the “Positive control reaction rate, 0.6M Na2SO4, Averages ± SE” value in assay [3] (0.6M Na2SO4, average of all experiments, analysis 5-10 min) is reported as 825 ± 31 RFU/min. In addition, in assay [3] (0.6M Na2SO4 final, recombinant Echo protease positive control, 0.25 uM camb2.5 substrate, data analysis 5-10 min, single experiments (EXP)), the “Positive control reaction rate, 0.6M Na2SO4” value is 679 RFU/min and 918 RFU/min and 921 RFU/min and 739 RFU/min and 770 RFU/min and 862 RFU/min and 890 RFU/min and 824 RFU/min. Further, the “increase of PSA photolytic activity” value in assay [4] is on record as above 103 fold.
`CC(C)CC(=O)N[C@H](C(=O)N[C@H](C(=O)N[C@@H](CC(C)C)[C@@H](O)CC(=O)N[C@@H](C)C(=O)N[C@@H](CC(C)C)[C@@H](O)CC(=O)O)C(C)C)C(C)C` [Pepstatin A] (Isovaleryl-VV[Sta]A[Sta]-OH): in assay [1], the “inhibition of HRV 3C protease activity” value is on record as “did not inhibit”. Also, the “effect on the non specific proteolytic activity of the nasal wash specimen” value in assay [2] is reported as “no effect”.
As for Ac-DEVD-CHO, the “effect on the non specific proteolytic activity of the nasal wash specimen” value in assay [2] is “no effect”.
Take Heparin: in assay [1], the “inhibition of HRV 3C protease activity” value is given as “did not inhibit”.
“M-Suc-Ala-Ala-Pro-Phe-p-Nitr (MeOSuc-AAPF-pNA; SMILES COC(=O)CCC(=O)N[C@@H](C)C(=O)N[C@@H](C)C(=O)N1CCC[C@H]1C(=O)N[C@@H](Cc1ccccc1)C(=O)Nc1ccc([N+](=O)[O-])cc1) [Sub.-2, Commercially available colorimetric a-Chymotrypsin substrate]”: the Inhibition % in assay [5] (Sub.-2 40 nM) is 10%; in assay [5] (Sub.-2 400 nM), 20%; in assay [5] (Sub.-2 4 uM) it was 40%; in assay [5] (Sub.-2 40 uM), 55%. The “Rate FU/min (Average)” value is recorded as 18000 FU/min in assay [5] (Sub.-2 40 nM), 16000 FU/min in assay [5] (Sub.-2 400 nM), 12000 FU/min in assay [5] (Sub.-2 4 uM) and 9000 FU/min in assay [5] (Sub.-2 40 uM).
